#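 How tested: cells in 96-well plates exposed to compound for 48 hours at five concentrations. TGI: concentration producing complete growth inhibition.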
# Columns and labels:
# Experiment in all cases: inhibition of tumour cell growth, NCI panel, 48 h
# CAKI-1 renal = system: CAKI-1 renal
# KM12 colon = system: KM12 colon
# OVCAR-8 ovarian = system: OVCAR-8 ovarian
# HL-60(TB) leukemia = system: HL-60(TB) leukemia
# TK-10 renal = system: TK-10 renal
# 786-0 renal = system: 786-0 renal
# SNB-19 CNS = system: SNB-19 CNS
# SF-295 CNS = system: SF-295 CNS
# RPMI-8226 leukemia = system: RPMI-8226 leukemia
# SK-MEL-2 melanoma = system: SK-MEL-2 melanoma
# MDA-MB-435 = system: MDA-MB-435
# U251 CNS = system: U251 CNS
# HCT-116 colon = system: HCT-116 colon
# SK-MEL-5 melanoma = system: SK-MEL-5 melanoma
# NCI/ADR-RES ovarian = system: NCI/ADR-RES ovarian
# HOP-62 NSCLC = system: HOP-62 NSCLC
# IGROV1 ovarian = system: IGROV1 ovarian
# SW-620 colon = system: SW-620 colon
# MCF7 breast = system: MCF7 breast
# LOX IMVI melanoma = system: LOX IMVI melanoma
# DU-145 prostate = system: DU-145 prostate
# UO-31 renal = system: UO-31 renal
# MDA-N = system: MDA-N
# SF-539 CNS = system: SF-539 CNS
# SR leukemia = system: SR leukemia
# UACC-62 melanoma = system: UACC-62 melanoma
# HCT-15 colon = system: HCT-15 colon
# MDA-MB-231 breast = system: MDA-MB-231 breast
# OVCAR-4 ovarian = system: OVCAR-4 ovarian
# NCI-H23 lung = system: NCI-H23 lung
# NCI-H460 lung = system: NCI-H460 lung
# T-47D breast = system: T-47D breast
# SK-OV-3 ovarian = system: SK-OV-3 ovarian
# PC-3 prostate = system: PC-3 prostate
# HS 578T breast = system: HS 578T breast
# COLO 205 colon = system: COLO 205 colon
# SNB-75 CNS = system: SNB-75 CNS
# K-562 leukemia = system: K-562 leukemia
# NCI-H522 lung = system: NCI-H522 lung
# A498 renal = system: A498 renal
# NCI-H226 lung = system: NCI-H226 lung
# A549 NSCLC = system: A549 NSCLC
# SN12C renal = system: SN12C renal
# ACHN renal = system: ACHN renal
# OVCAR-5 ovarian = system: OVCAR-5 ovarian
# HT29 colon = system: HT29 colon
# BT-549 breast = system: BT-549 breast
# CCRF-CEM leukemia = system: CCRF-CEM leukemia
# MOLT-4 leukemia = system: MOLT-4 leukemia
# MALME-3M melanoma = system: MALME-3M melanoma
# OVCAR-3 ovarian = system: OVCAR-3 ovarian
# M14 melanoma = system: M14 melanoma
# UACC-257 melanoma = system: UACC-257 melanoma
# SK-MEL-28 melanoma = system: SK-MEL-28 melanoma
# HCC-2998 colon = system: HCC-2998 colon
# SF-268 CNS = system: SF-268 CNS
# RXF 393 renal = system: RXF 393 renal
# EKVX NSCLC = system: EKVX NSCLC
# HOP-92 NSCLC = system: HOP-92 NSCLC
compound,measurement,setting,value
S=c1[nH]nc(C23CC4CC(CC(C4)C2)C3)n1-c1ccc(Cl)cc1,TGI,CAKI-1 renal,11.5 µM
same,TGI,KM12 colon,52.9 µM
same,TGI,OVCAR-8 ovarian,> 100000 nM
same,TGI,HL-60(TB) leukemia,8.41 µM
same,TGI,TK-10 renal,72.4 µM
same,TGI,786-0 renal,> 100000 nM
same,TGI,SNB-19 CNS,> 100 µM
same,TGI,SF-295 CNS,58.6 µM
same,TGI,RPMI-8226 leukemia,66.9 µM
same,TGI,SK-MEL-2 melanoma,27.9 µM
same,TGI,MDA-MB-435,55.9 µM
same,TGI,U251 CNS,31.7 µM
same,TGI,HCT-116 colon,23.8 µM
same,TGI,SK-MEL-5 melanoma,14.4 µM
same,TGI,NCI/ADR-RES ovarian,59.8 µM
same,TGI,HOP-62 NSCLC,32.7 µM
same,TGI,IGROV1 ovarian,42.9 µM
same,TGI,SW-620 colon,> 100000 nM
same,TGI,MCF7 breast,45.7 µM
same,TGI,LOX IMVI melanoma,17 µM
same,TGI,DU-145 prostate,95.9 µM
same,TGI,UO-31 renal,44.7 µM
same,TGI,MDA-N,41.1 µM
same,TGI,SF-539 CNS,38 µM
same,TGI,SR leukemia,16.4 µM
same,TGI,UACC-62 melanoma,25.3 µM
same,TGI,HCT-15 colon,23.3 µM
same,TGI,MDA-MB-231 breast,56.4 µM
same,TGI,OVCAR-4 ovarian,> 100000 nM
same,TGI,NCI-H23 lung,> 100 µM
same,TGI,NCI-H460 lung,56 µM
same,TGI,T-47D breast,52 µM
same,TGI,SK-OV-3 ovarian,73.9 µM
same,TGI,PC-3 prostate,93.7 µM
same,TGI,HS 578T breast,52.8 µM
same,TGI,COLO 205 colon,46 µM
same,TGI,SNB-75 CNS,72.1 µM
same,TGI,K-562 leukemia,> 100000 nM
same,TGI,NCI-H522 lung,57.9 µM
same,TGI,A498 renal,42.6 µM
same,TGI,NCI-H226 lung,55.8 µM
same,TGI,A549 NSCLC,72.2 µM
same,TGI,SN12C renal,39.9 µM
same,TGI,ACHN renal,73.5 µM
same,TGI,OVCAR-5 ovarian,> 100 µM
same,TGI,HT29 colon,36.8 µM
same,TGI,BT-549 breast,29.9 µM
same,TGI,CCRF-CEM leukemia,19.8 µM
same,TGI,MOLT-4 leukemia,49.4 µM
same,TGI,MALME-3M melanoma,63.3 µM
same,TGI,OVCAR-3 ovarian,30.4 µM
same,TGI,M14 melanoma,41.4 µM
same,TGI,UACC-257 melanoma,71.4 µM
same,TGI,SK-MEL-28 melanoma,33.4 µM
same,TGI,HCC-2998 colon,32.9 µM
same,TGI,SF-268 CNS,50.1 µM
same,TGI,RXF 393 renal,38.1 µM
CC(C)c1nc(Cl)nc(Cl)c1Cl,TGI,KM12 colon,3.9 µM
same,TGI,OVCAR-8 ovarian,2450 nM
same,TGI,TK-10 renal,4.28 µM
same,TGI,786-0 renal,2260 nM
same,TGI,SNB-19 CNS,3.06 µM
same,TGI,SF-295 CNS,8.91 µM
same,TGI,RPMI-8226 leukemia,> 100 µM
same,TGI,MDA-MB-435,2.69 µM
same,TGI,U251 CNS,2.43 µM
same,TGI,HCT-116 colon,1.41 µM
same,TGI,SK-MEL-5 melanoma,6.7 µM
same,TGI,EKVX NSCLC,6.62 µM
same,TGI,NCI/ADR-RES ovarian,> 56.4 µM
same,TGI,HOP-62 NSCLC,4.04 µM
same,TGI,IGROV1 ovarian,0.423 µM
same,TGI,SW-620 colon,858 nM
same,TGI,MCF7 breast,6.11 µM
same,TGI,LOX IMVI melanoma,0.198 µM
same,TGI,DU-145 prostate,10.5 µM
same,TGI,UO-31 renal,0.166 µM
same,TGI,MDA-N,4.9 µM
same,TGI,HOP-92 NSCLC,381 nM
same,TGI,SF-539 CNS,1.82 µM
same,TGI,SR leukemia,0.0209 µM
same,TGI,UACC-62 melanoma,2.25 µM
same,TGI,HCT-15 colon,15.7 µM
same,TGI,MDA-MB-231 breast,5.64 µM
same,TGI,OVCAR-4 ovarian,751 nM
same,TGI,NCI-H23 lung,3.05 µM
same,TGI,NCI-H460 lung,16.6 µM
same,TGI,T-47D breast,13.6 µM
same,TGI,SK-OV-3 ovarian,17.6 µM
same,TGI,PC-3 prostate,4.19 µM
same,TGI,HS 578T breast,2.91 µM
same,TGI,COLO 205 colon,13.9 µM
same,TGI,SNB-75 CNS,22.7 µM
same,TGI,K-562 leukemia,70.8 nM
same,TGI,NCI-H522 lung,1.54 µM
same,TGI,A498 renal,9.37 µM
same,TGI,NCI-H226 lung,5.58 µM
same,TGI,A549 NSCLC,18.6 µM
same,TGI,SN12C renal,2.83 µM
same,TGI,ACHN renal,1.85 µM
same,TGI,OVCAR-5 ovarian,3.93 µM
same,TGI,HT29 colon,2.52 µM
same,TGI,BT-549 breast,0.0335 µM
same,TGI,CCRF-CEM leukemia,0.0358 µM
same,TGI,MOLT-4 leukemia,0.176 µM
same,TGI,MALME-3M melanoma,12.9 µM
same,TGI,OVCAR-3 ovarian,1.74 µM
same,TGI,M14 melanoma,1.83 µM
same,TGI,UACC-257 melanoma,1.91 µM
same,TGI,SK-MEL-28 melanoma,2.72 µM
same,TGI,HCC-2998 colon,13.1 µM
same,TGI,SF-268 CNS,9.12 µM
same,TGI,RXF 393 renal,1.47 µM
